One may read the EC50 as the concentration needed to bring the measured effect to its halfway point. A high value points to a need for much substance.

These results are taken from patent US20250042897A1, “HETEROCYCLIC COMPOUNDS AS TRIGGERING RECEPTOR EXPRESSED ON MYELOID CELLS 2 AGONISTS AND METHODS OF USE” (Vigil Neuroscience, Inc., priority 2021, published 2025).

For the first test, the target named is T1, human TREM2 (Homo sapiens, UniProt Q9NZC2).
T1 construct: expressed in transfected cells; host or cells: HEK293T
T1 sequence (Q9NZC2 19-230): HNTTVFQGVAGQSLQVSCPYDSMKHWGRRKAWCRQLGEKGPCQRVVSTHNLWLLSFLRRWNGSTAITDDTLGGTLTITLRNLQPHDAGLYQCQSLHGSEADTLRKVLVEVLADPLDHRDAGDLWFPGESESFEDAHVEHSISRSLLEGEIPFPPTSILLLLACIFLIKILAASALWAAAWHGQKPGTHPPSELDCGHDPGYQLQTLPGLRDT
T1 sequence (O43914 22-113 partner): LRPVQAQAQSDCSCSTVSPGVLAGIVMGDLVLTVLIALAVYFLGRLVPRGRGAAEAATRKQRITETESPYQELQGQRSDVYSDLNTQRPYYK
Put plainly: hTREM2 agonist potency by cellular Syk phosphorylation (AlphaLisa) in HEK293T-hTREM2 cells. The conditions noted are these: Table D-2; HEK293 cells expressing human TREM2 and DAP12; pSyk AlphaLisa; 45 minutes at room temperature. It is filed as cell-based. As for the experimental part:
In Vitro Measurement of Triggering Receptor Expressed on Myeloid Cells 2 Activity Using Cellular Phosphorylation of Spleen Tyrosine Kinase (“Syk”) Assays
Measurement of TREM2 agonist potency was done using a HEK cell line expressing human TREM2 and DAP12 (HEK293T-hTREM2 cells). Binding of small molecules to, and activation of, TREM2 increases the phosphorylation of Syk. The resultant levels of Syk phosphorylation are measured using a commercial AlphaLisa reagent kit. To perform the assay, HEK-hTREM2 cells were plated at 14,000 cells per well in a 384 well plate, in 25 μL of complete growth media and incubated at 37° C., 5% CO2 for 20-24 hours.
Prior to the assay, test compounds were diluted in the 384 well plates in assay buffer and allowed to equilibrate for 30 minutes. Growth media was removed from cell plates by inversion on blotting paper, and 25 μL of test articles in assay buffer was added to cells. Cells were incubated for 45 minutes at room temperature. After 45 minutes, assay buffer was removed and 10 μL of lysis buffer was added. Plates were shaken for 20 minutes at 350 RPM at room temperature. After complete lysis, AlphaLisa reagents were added to the lysate, and fluorescence intensity was measured using a Perkin Elmer Envision plate reader. Intensities were used to generate a standard curve, and % activation was calculated. Curve fitting was performed using Prism v9 software, log (agonist) vs response-variable slope (four parameters), and EC50s were calculated from the curve fit.
The results presented in Table D have been generated with the in vitro assay described above. This assay may be used to test any of the compounds described herein to assess and characterize a compound's ability to act as an agonist of TREM2.
For orientation: In Alpha technology, singlet oxygen from a donor bead excites a nearby acceptor bead.
Turning to `C[C@@H]1CN(c2cc(-c3ccc(Cl)cc3F)c3cnn(C)c(=O)c3n2)C[C@H](c2cnn(C3CC3)c2)O1` [I-100, 4-(4-chloro-2-fluorophenyl)-2-((2S,6R)-2-(1-cyclopropyl-1H-pyrazol-4-yl)-6-methylmorpholino)-7-methylpyrido[2,3-d]pyridazin-8 (7H)-one], the EC50 lay within 50 to 500 nM.
The same measure, in the same setting: then `Cc1nc2c(-c3ccc(F)cc3F)nc([C@H]3CCO[C@@H](c4cnn(C5CC5)c4)C3)nc2c(=O)n1C` [I-105, 6-((2R,4S)-2-(1-cyclopropyl-1H-pyrazol-4-yl)tetrahydro-2H-pyran-4-yl)-8-(2,4-difluorophenyl)-2,3-dimethylpyrimido[5,4-d]pyrimidin-4 (3H)-one], with 50 to 500 nM; and `Cc1nc2c(-c3ccc(F)cc3F)cc(N3C[C@@H](C)O[C@@H](c4cnn(C5CC5)c4)C3)nc2c(=O)n1C` [I-110, 6-((2S,6R)-2-(1-cyclopropyl-1H-pyrazol-4-yl)-6-methylmorpholino)-8-(2,4-difluorophenyl)-2,3-dimethylpyrido[3,2-d]pyrimidin-4 (3H)-one], with no more than 50 nM.
As to `O=c1c2nc(C3CCOC(c4cnn(C5CC5)c4)C3)nc(-c3ccc(C(F)(F)F)cc3F)c2cnn1C1CC1` (stereo not drawn) [I-115], the EC50 lay in the range of 500 to 3000 nM.
`Cc1nc2c(-c3ccc(F)cc3F)cc([C@H]3CCO[C@@H](c4cnn(C5CC5)c4)C3)nc2c(=O)n1C` [I-120, 6-((2R,4S)-2-(1-cyclopropyl-1H-pyrazol-4-yl)tetrahydro-2H-pyran-4-yl)-8-(2,4-difluorophenyl)-2,3-dimethylpyrido[3,2-d]pyrimidin-4 (3H)-one] gave an EC50 of 50 to 500 nM.
As to `Cc1nc2c(-c3ccc(C(F)(F)F)cc3F)nc([C@@H]3CCO[C@@H](c4cnn(C5CC5)c4)C3)nc2c(=O)n1C` [I-132, 6-[(2R,4R)-2-(1-cyclopropylpyrazol-4-yl)tetrahydropyran-4-yl]-8-[2-fluoro-4-(trifluoromethyl)phenyl]-2,3-dimethyl-pyrimido[5,4-d]pyrimidin-4-one], the EC50 was 50 to 500 nM.
The same measure, in the same setting: in the case of `Cc1nc2c(-c3ccc(C(F)(F)F)cc3F)nc([C@H]3CCO[C@@H](c4cnn(C5CC5)c4)C3)nc2c(=O)n1C` [I-134, 6-[(2R,4S)-2-(1-cyclopropylpyrazol-4-yl)tetrahydropyran-4-yl]-8-[2-fluoro-4-(trifluoromethyl)phenyl]-2,3-dimethyl-pyrimido[5,4-d]pyrimidin-4-one] it was no more than 50 nM.
The same measure, in the same setting: in the case of `Cc1nc2c(-c3ccc(C(F)(F)F)cc3F)nc(N3C[C@@H](C)O[C@@H](c4cnn(C5CC5)c4)C3)nc2c(=O)n1C` [I-136, 6-[(2S,6R)-2-(1-cyclopropylpyrazol-4-yl)-6-methyl-morpholin-4-yl]-8-[2-fluoro-4-(trifluoromethyl)phenyl]-2,3-dimethyl-pyrimido[5,4-d]pyrimidin-4-one] it was no more than 50 nM; in that of `C[C@@H]1CN(c2nc(-c3ccc(F)cc3F)c3cnn(C)c(=O)c3n2)C[C@H](c2cnn(C3CC3)c2)O1` [I-141, 2-[(2S, 6R)-2-(1-cyclopropylpyrazol-4-yl)-6-methyl-morpholin-4-yl]-4-(2,4-difluorophenyl)-7-methyl-pyrimido[4,5-d]pyridazin-8-one], no more than 50 nM.
In turn, `Cn1ncc2c(-c3ccc(F)cc3F)nc(C3CCO[C@@H](c4cnn(C5CC5)c4)C3)nc2c1=O` (stereo partly drawn) [I-146, 2-[(2R)-2-(1-cyclopropylpyrazol-4-yl)tetrahydropyran-4-yl]-4-(2,4-difluorophenyl)-7-methyl-pyrimido[4,5-d]pyridazin-8-one] came in with an EC50 of 50 to 500 nM.
The same measure, in the same setting: then `Cc1nc2c(-c3ccc(Cl)cc3F)nc(N3C[C@@H](C)O[C@@H](c4cnn(C5CC5)c4)C3)nc2c(=O)n1C` [I-152, 8-(4-chloro-2-fluoro-phenyl)-6-[(2S,6R)-2-(1-cyclopropylpyrazol-4-yl)-6-methyl-morpholin-4-yl]-2,3-dimethyl-pyrimido[5,4-d]pyrimidin-4-one], with no more than 50 nM.
Still for that read-out and setting: in the case of `Cn1ncc2c(-c3ccc(F)cc3F)nc(C3CCO[C@@H](c4cn(C5CC5)[n+](C)c4)C3)nc2c1=O` (stereo partly drawn) [I-157, 2-[(2R)-2-(1-cyclopropyl-2-methyl-pyrazol-2-ium-4-yl)tetrahydropyran-4-yl]-4-(2,4-difluorophenyl)-7-methyl-pyrimido[4,5-d]pyridazin-8-one] it was 500 to 3000 nM; in that of `C[C@@H]1CN(c2nc(-c3ccc(F)cc3F)c3ncn(C)c(=O)c3n2)C[C@H](c2cnn(C3CC3)c2)O1` [I-163, 6-((2S,6R)-2-(1-cyclopropyl-1H-pyrazol-4-yl)-6-methylmorpholino)-8-(2,4-difluorophenyl)-3-methylpyrimido[5,4-d]pyrimidin-4 (3H)-one], no more than 50 nM.
Still for that read-out and setting: then `Cc1nc2c(-c3ccc(F)cc3F)nc([C@@H]3CCO[C@@H](c4cnn(C5CC5)c4)C3)nc2c(=O)n1C` [I-168], with 50 to 500 nM.
In turn, `CC1Nc2c(nc([C@H]3CCO[C@@H](c4cnn(C5CC5)c4)C3)nc2-c2ccc(F)cc2F)C(=O)N1C` (stereo partly drawn) [I-173] returned an EC50 of 500 to 3000 nM.
On the same count and under the same terms, in the case of `COCn1cc([C@H]2CN(c3nc(-c4ccc(Cl)cc4F)c4cnn(C)c(=O)c4n3)C[C@@H](C)O2)cn1` [I-178] it was no more than 50 nM; in that of `Cc1cc([C@H]2CC(c3nc(-c4ccc(Cl)cc4F)c4nc(C)n(C)c(=O)c4n3)CCO2)ccn1` (stereo partly drawn) [I-188, 8-(4-chloro-2-fluoro-phenyl)-2,3-dimethyl-6-[(2R)-2-(2-methyl-4-pyridyl)tetrahydropyran-4-yl]pyrimido[5,4-d]pyrimidin-4-one], no more than 50 nM; in that of `CCn1ncc2c(-c3ccc(Cl)cc3F)nc(N3C[C@@H](C)O[C@@H](c4cnn(C5CC5)c4)C3)nc2c1=O` [I-193, 4-(4-chloro-2-fluorophenyl)-2-((2S, 6R)-2-(1-cyclopropyl-1H-pyrazol-4-yl)-6-methylmorpholino)-7-ethyl-pyrimido[4,5-d]pyridazin-8 (7H)-one], no more than 50 nM.
In turn, `C[C@@H]1CN(c2nc(-c3ccc(C(F)(F)F)nc3)c3cnn(C)c(=O)c3n2)C[C@H](c2cnn(C3CC3)c2)O1` [I-198, 2-[(2S, 6R)-2-(1-cyclopropylpyrazol-4-yl)-6-methyl-morpholin-4-yl]-7-methyl-4-[6-(trifluoromethyl)-3-pyridyl]pyrimido[4,5-d]pyridazin-8-one] showed an EC50 of no more than 50 nM.
The compound `Cc1ccc(-c2nc(N3C[C@@H](C)O[C@@H](c4cnn(C5CC5)c4)C3)nc3c(=O)n(C)ncc23)c(F)c1` [I-203, 2-((2S,6R)-2-(1-cyclopropyl-1H-pyrazol-4-yl)-6-methylmorpholino)-4-(2-fluoro-4-methylphenyl)-7-methylpyrimido[4,5-d]pyridazin-8 (7H)-one] had an EC50 of no more than 50 nM.
As for `Cc1nc2c(C3CCCCC3)nc(N3C[C@@H](C)O[C@@H](c4cnn(C5CC5)c4)C3)nc2c(=O)n1C` [I-208, 8-cyclohexyl-6-((2S,6R)-2-(1-cyclopropyl-1H-pyrazol-4-yl)-6-methylmorpholino)-2,3-dimethylpyrimido[5,4-d]pyrimidin-4 (3H)-one], the EC50 was no more than 50 nM.
In turn, `Cc1cc([C@H]2CN(c3nc(-c4ccc(F)cc4F)c4nc(C)n(C)c(=O)c4n3)C[C@@H](C)O2)ccn1` [I-213, 8-(2,4-difluorophenyl)-2,3-dimethyl-6-[(2R, 6S)-2-methyl-6-(2-methyl-4-pyridyl)morpholin-4-yl]pyrimido[5,4-d]pyrimidin-4-one] came in with an EC50 of no more than 50 nM.
The compound `C[C@@H]1CN(c2nc(-c3cc(F)c(F)cc3F)c3cnn(C)c(=O)c3n2)C[C@H](c2cnn(C3CC3)c2)O1` [I-218, 2-((2S,6R)-2-(1-cyclopropyl-1H-pyrazol-4-yl)-6-methylmorpholino)-7-methyl-4-(2,4,5-trifluorophenyl)pyrimido[4,5-d]pyridazin-8 (7H)-one] displayed an EC50 of no more than 50 nM.

The test is the same for the next values; noted with them: Table D; HEK293 cells expressing human TREM2 and DAP12; pSyk AlphaLisa; 45 minutes at room temperature.
`Cc1nc2cc(N3CCOC(c4cc[nH]c(=O)c4)C3)nc(-c3ccc(F)cc3F)c2c(=O)n1C` (stereo not drawn) [compound 1, 5-(2,4-difluorophenyl)-2,3-dimethyl-7-(2-(2-oxo-1,2-dihydropyridin-4-yl)morpholino)pyrido[4,3-d]pyrimidin-4(3H)-one] showed an EC50 of 50 to 500 nM.
The same measure, in the same setting: in the case of `Cc1nc2cc(N3CCO[C@@H](c4cc[nH]c(=O)c4)C3)nc(-c3ccc(F)cc3F)c2c(=O)n1C` [compound 2, (S)-5-(2,4-difluorophenyl)-2,3-dimethyl-7-(2-(2-oxo-1,2-dihydropyridin-4-yl)morpholino)pyrido[4,3-d]pyrimidin-4(3H)-one] it was 50 to 500 nM; in that of `Cc1nc2cc(N3CCO[C@H](c4cc[nH]c(=O)c4)C3)nc(-c3ccc(F)cc3F)c2c(=O)n1C` [compound 3, (R)-5-(2,4-difluorophenyl)-2,3-dimethyl-7-(2-(2-oxo-1,2-dihydropyridin-4-yl)morpholino)pyrido[4,3-d]pyrimidin-4(3H)-one], 3000 to 100000 nM; in that of `Cc1nc2cc(N3CCOC(c4cc[nH]c(=O)c4)C3)nc(C34CC(C(F)(F)F)(C3)C4)c2c(=O)n1C` (stereo not drawn) [compound 4, 2,3-dimethyl-7-(2-(2-oxo-1,2-dihydropyridin-4-yl)morpholino)-5-(3-(trifluoromethyl)bicyclo[1.1.1]pentan-1-yl)pyrido[4,3-d]pyrimidin-4(3H)-one], no more than 50 nM.
